Measured values reported in patent EP0237495A2, “Halogenides of the ester of 2,N,N,N-dimethyl-alkyl-amino-ethanol with substituted acetic acid and pharmaceutical compositions having antiinflammatory and antiseptic activities containing same” (Sigma-Tau Industrie Farmaceutiche Riunite S.p.A., priority 1986, dated 1987).

Assays:
[1] = test system: Bordetella bronchiseptica; type: cell-based; conditions: ATCC4617; Bordetella bronchiseptica ATCC 4617
Pseudomonas maltophilia = type: cell-based; conditions: Stenotrophomonas maltophilia, ATCC13637; Pseudomonas maltophilia ATCC 13637
Bacillus subtilis = type: cell-based; conditions: ATCC6633; Bacillus subtilis ATCC 6633
rat subcutaneous tissue = experiment: Topical tolerability in rat subcutaneous tissue; type: in vivo; parameters: key: 0: no response; 1: moderate response; 2: sharp response; 3: marked response; 4: extreme response; conditions: 1 ml of 1% suspension s.c., arbitrary scale 0-4; for Irritation degree 4h: 4 hours after administration; for Irritation degree 24h: 24 hours after administration
Method: The test was carried out on rats using two different test procedures. The products were tested at 1% concentration. According to the first procedure, 1 ml of the test suspensions were injected subcutaneously (s.c.) in the side of animals. 4 or 24 hours following administration, the animals were sacrificed, and the degree of subcutaneous irriration estimated.
The presence of erythema, oedema and necrosis was assessed based on the following arbitrary rating scale • - 0 : no response • - 1 : moderate response • - 2 : sharp response • - 3 : marked response • - 4 : extreme response

Rhodotorula rubra = type: cell-based; conditions: Rhodotorula rubra ISM 7198
mouse = experiment: in vivo; conditions: ip
Method: (§1) The test was carried out in the mouse. The products were administered by intraperitoneal injection. The death rate was assessed daily over a period of 14 days following treatment.

in vivo = conditions: mouse, ip
Method: as §1

Proteus vulgaris = type: cell-based; conditions: ATCC6897; Proteus vulgaris ATCC 6897
Cryptococcus neoformans = type: cell-based; conditions: Cryptococcus neoformans ISM 7182
Staphylococcus aureus = type: cell-based; conditions: ATCC6538P; Staphylococcus aureus ATCC 6538P
Bacillus antracis = type: cell-based
Klebsiella pneumoniae = type: cell-based; conditions: ATCC10031; Klebsiella pneumoniae ATCC 10031
Escherichia coli = type: cell-based; conditions: Escherichia coli K 12
Candida albicans = type: cell-based; conditions: ATCC10231; Candida albicans ATCC 10231
Pseudomonas aeruginosa = type: cell-based; conditions: ATCC14502; Pseudomonas aeruginosa ATCC 14502
[2] = test system: Staphylococcus epidermidis; type: cell-based; conditions: Staphylococcus epidermidis BB 0223
rat peritoneum = conditions: in vivo, ip
Candida utilis = type: cell-based; conditions: Williopsis jadinii; Candida utilis BB 0173
Sarcina lutea = type: cell-based; conditions: Micrococcus luteus, ATCC9341; Sarcina lutea ATCC 9341
[3] = test system: acetic acid-induced peritoneal exudation; experiment: Antiexudative activity (acetic acid-induced peritoneal exudation); type: in vivo; conditions: rat, 1 hour before i.p. 1% acetic acid
Method: The test was carried out in the rat. The products were orally administered 1 hour before the intraperitoneal injection of 0.5 ml of 1% acetic acid. Along with the irritant agent, 1 ml of 0,1% Blue Evans was injected i.v. to the rats. The same procedure as that described above was followed for collecting the peritoneal exudate and rating the irritation degree.

Aspergillus niger = type: cell-based; conditions: ATCC9642; Aspergillus niger ATCC 9642
Penicillium funicolosum = type: cell-based; conditions: ATCC9644; Penicillium funicolosum ATCC 9644
Streptococcus faecalis = type: cell-based; conditions: Enterococcus faecalis, ATCC8043; Streptococcus faecalis ATCC 8043
Saccharomyces cerevisiae = type: cell-based; conditions: Saccharomyces cerevisiae BB 0193
Streptococcus pyogenes = type: cell-based; conditions: ATCC12380; Streptococcus pyogenes ATCC 12380

Compound: CCCCCCCC[N+](C)(C)CCOC(=O)C(C)c1ccc(CC(C)C)cc1 (stereo not drawn) [AF 150, bromide of the ester of 2-N,N,N-dimethyl-octyl-amino-ethanol with p-isobutylphenyl-alpha-methylacetic acid]
- MIC [1]: 10 µg/mL
- MIC (Pseudomonas maltophilia): 40 µg/mL
- MIC (Bacillus subtilis): 10 µg/mL
- Irritation degree 4h (rat subcutaneous tissue): 2
- Irritation degree 24h (rat subcutaneous tissue): 1
- MIC (Rhodotorula rubra): ≤ 5 µg/mL
- Mortality (mouse; 7.8 mg/kg): 0/6
- Mortality (mouse; 31.2 mg/kg): 6/6
- Mortality (mouse; 62.5 mg/kg): 6/6
- Mortality (mouse; 125 mg/kg): 5/6
- mortality at 336 h (in vivo; 7.8 mg/kg): 0%
- mortality at 336 h (in vivo; 15.6 mg/kg): 0%
- mortality at 336 h (in vivo; 31.2 mg/kg): 100%
- mortality at 336 h (in vivo; 62.5 mg/kg): 100%
- mortality at 336 h (in vivo; 125 mg/kg): 83.3%
- MIC (Proteus vulgaris): 10 µg/mL
- MIC (Cryptococcus neoformans): ≤ 5 µg/mL
- MIC (Staphylococcus aureus): ≤ 5 µg/mL
- MIC (Bacillus antracis): 10 µg/mL
- MIC (Klebsiella pneumoniae): 10 µg/mL
- MIC (Escherichia coli): 80 µg/mL
- MIC (Candida albicans): ≤ 5 µg/mL
- MIC (Pseudomonas aeruginosa): 10 µg/mL
- MIC [2]: 10 µg/mL
- Percent increase in response with respect to controls (rat peritoneum): 185%
- MIC (Candida utilis): ≤ 5 µg/mL
- MIC (Sarcina lutea): ≤ 5 µg/mL
- % Inhibition with respect to controls ([3]; 200 mg/kg orally): 37%
- % Inhibition with respect to controls ([3]; 400 mg/kg orally): 51%
- MIC (Aspergillus niger): 10 µg/mL
- MIC (Penicillium funicolosum): 10 µg/mL
- MIC (Streptococcus faecalis): 20 µg/mL
- MIC (Saccharomyces cerevisiae): ≤ 5 µg/mL
- MIC (Streptococcus pyogenes): 20 µg/mL

Compound: N=C(NCCCCCCNC(=N)NC(=N)Nc1ccc(Cl)cc1)NC(=N)Nc1ccc(Cl)cc1 [Chlorexidine, Chlorexidine gluconate, reference compound]
- MIC [1]: 40 µg/mL
- MIC (Pseudomonas maltophilia): 80 µg/mL
- MIC (Bacillus subtilis): ≤ 5 µg/mL
- MIC (Rhodotorula rubra): 40 µg/mL
- MIC (Proteus vulgaris): 40 µg/mL
- MIC (Cryptococcus neoformans): 40 µg/mL
- MIC (Staphylococcus aureus): ≤ 5 µg/mL
- MIC (Bacillus antracis): 20 µg/mL
- MIC (Klebsiella pneumoniae): 40 µg/mL
- MIC (Escherichia coli): 10 µg/mL
- MIC (Candida albicans): 20 µg/mL
- MIC (Pseudomonas aeruginosa): 80 µg/mL
- MIC [2]: 10 µg/mL
- MIC (Candida utilis): 40 µg/mL
- MIC (Sarcina lutea): 20 µg/mL
- MIC (Aspergillus niger): 80 µg/mL
- MIC (Penicillium funicolosum): > 80 µg/mL
- MIC (Streptococcus faecalis): 20 µg/mL
- MIC (Saccharomyces cerevisiae): 80 µg/mL
- MIC (Streptococcus pyogenes): 10 µg/mL

Compound: CCCCCCCCCC[N+](C)(C)CCOC(=O)Cc1c(C)n(C(=O)c2ccc(Cl)cc2)c2ccc(OC)cc12 [RE 8, iodide of the ester of 2-N,N,N-dimethyl-decyl --amino-ethanol with 1-(p-chlorobenzoyl)-2-methyl-5-methoxy-3-indolyl-acetic acid]
- MIC [1]: 80 µg/mL
- MIC (Pseudomonas maltophilia): 80 µg/mL
- MIC (Bacillus subtilis): 10 µg/mL
- Irritation degree 4h (rat subcutaneous tissue): 2
- Irritation degree 24h (rat subcutaneous tissue): 2
- MIC (Rhodotorula rubra): ≤ 5 µg/mL
- Mortality (mouse; 7.8 mg/kg): 0/6
- Mortality (mouse; 31.2 mg/kg): 6/6
- Mortality (mouse; 62.5 mg/kg): 6/6
- Mortality (mouse; 125 mg/kg): 5/6
- Mortality (mouse; 250 mg/kg): 6/6
- mortality at 336 h (in vivo; 7.8 mg/kg): 0%
- mortality at 336 h (in vivo; 15.6 mg/kg): 0%
- mortality at 336 h (in vivo; 31.2 mg/kg): 100%
- mortality at 336 h (in vivo; 62.5 mg/kg): 100%
- mortality at 336 h (in vivo; 125 mg/kg): 83.3%
- mortality at 336 h (in vivo; 250 mg/kg): 100%
- MIC (Proteus vulgaris): 80 µg/mL
- MIC (Cryptococcus neoformans): ≤ 5 µg/mL
- MIC (Staphylococcus aureus): ≤ 5 µg/mL
- MIC (Bacillus antracis): 10 µg/mL
- MIC (Klebsiella pneumoniae): > 80 µg/mL
- MIC (Escherichia coli): > 80 µg/mL
- MIC (Candida albicans): ≤ 5 µg/mL
- MIC (Pseudomonas aeruginosa): 80 µg/mL
- MIC [2]: ≤ 5 µg/mL
- Percent increase in response with respect to controls (rat peritoneum): 97%
- MIC (Candida utilis): ≤ 5 µg/mL
- MIC (Sarcina lutea): 10 µg/mL
- % Inhibition with respect to controls ([3]; 200 mg/kg orally): 31%
- % Inhibition with respect to controls ([3]; 400 mg/kg orally): 46%
- MIC (Aspergillus niger): ≤ 5 µg/mL
- MIC (Penicillium funicolosum): ≤ 5 µg/mL
- MIC (Streptococcus faecalis): 10 µg/mL
- MIC (Saccharomyces cerevisiae): ≤ 5 µg/mL
- MIC (Streptococcus pyogenes): 10 µg/mL

Compound: CCCCCCCCCCCC[N+](C)(C)CCOC(=O)Cc1c(C)n(C(=O)c2ccc(Cl)cc2)c2ccc(OC)cc12 [RE 9, iodide of the ester of 2-N,N,N-dimethyl-dodecyl, amino-ethanol with 1-(p-chlorobenzoyl)-2-methyl-5-methoxy-3-indolyl-acetic acid]
- MIC [1]: 80 µg/mL
- MIC (Pseudomonas maltophilia): 80 µg/mL
- MIC (Bacillus subtilis): ≤ 5 µg/mL
- Irritation degree 4h (rat subcutaneous tissue): 2
- Irritation degree 24h (rat subcutaneous tissue): 2
- MIC (Rhodotorula rubra): ≤ 5 µg/mL
- Mortality (mouse; 62.5 mg/kg): 5/6
- Mortality (mouse; 125 mg/kg): 6/6
- Mortality (mouse; 250 mg/kg): 5/6
- Mortality (mouse; 500 mg/kg): 6/6
- mortality at 336 h (in vivo; 31.2 mg/kg): 0%
- mortality at 336 h (in vivo; 62.5 mg/kg): 83.3%
- mortality at 336 h (in vivo; 125 mg/kg): 100%
- mortality at 336 h (in vivo; 250 mg/kg): 83.3%
- mortality at 336 h (in vivo; 500 mg/kg): 100%
- MIC (Proteus vulgaris): 20 µg/mL
- MIC (Cryptococcus neoformans): ≤ 5 µg/mL
- MIC (Staphylococcus aureus): ≤ 5 µg/mL
- MIC (Bacillus antracis): ≤ 5 µg/mL
- MIC (Klebsiella pneumoniae): 80 µg/mL
- MIC (Escherichia coli): 80 µg/mL
- MIC (Candida albicans): ≤ 5 µg/mL
- MIC (Pseudomonas aeruginosa): 80 µg/mL
- MIC [2]: ≤ 5 µg/mL
- Percent increase in response with respect to controls (rat peritoneum): 95%
- MIC (Candida utilis): ≤ 5 µg/mL
- MIC (Sarcina lutea): ≤ 5 µg/mL
- % Inhibition with respect to controls ([3]; 200 mg/kg orally): 35%
- % Inhibition with respect to controls ([3]; 400 mg/kg orally): 40%
- MIC (Aspergillus niger): ≤ 5 µg/mL
- MIC (Penicillium funicolosum): ≤ 5 µg/mL
- MIC (Streptococcus faecalis): ≤ 5 µg/mL
- MIC (Saccharomyces cerevisiae): ≤ 5 µg/mL
- MIC (Streptococcus pyogenes): ≤ 5 µg/mL

Compound: CC(C)Cc1ccc(C(C)C(=O)O)cc1 (stereo not drawn) [ibuprofen, Ibuprofen, reference compound]
- % Inhibition with respect to controls ([3]; 200 mg/kg orally): 60%
- % Inhibition with respect to controls ([3]; 400 mg/kg orally): 58%
